Measurements taken from patent US20120283334A1, “Treatment of Viral Infections” (Biocopea, Ltd., priority 2009, published 2012).
Like-named read-outs stand apart in the source and are kept apart here.

Columns and labels:
IFN-γ [1] = test: IFN-γ levels in PBMC under Con A stimulation (ELISA); assay type: cell-based, human; settings: for Percentage IFN-γ levels compared to 100% untreated cells under Con A stimulation: PBMC; for concentration of IFN-γ in Con A stimulated cells: text summary of Table 4, concentration not stated
Method: (§1) 1) Isolation, Culture and Treatment of Peripheral Blood Mononuclear Cells (PBMC) Blood was collected in 6 ml vacutainers (green cap). Blood was processed within 2 h of collection. Materials used: Non-coagulated blood; FCS; RPMI-1640 media supplemented with L-Gln and P/S; PBS; sterile tips and pipettes; Sterile 15 ml Falcon; Sterile V-bottom 96-well plates with lids; Neubauer chamber; Trypan Blue solution; 70% IPA solution; Accuspin-Histopaque tubes (Sigma, A7054) Procedure: • 1. Dilute samples 1:1 in sterile PBS; • 2. Add 30 ml of diluted blood into an Accuspin-Histopaque tube (Sigma, A7054); • 3. Centrifuge at 800 rcf 15min at room temperature (RT); • 4. After centrifugation, the red blood cells will remain at the bottom below the frit. The monocytes (PBMC) will be present on a layer above the frit, with the plasma on top; • 5. Collect the PBMC layer with a pipette into a fresh 15 ml Falcon tube and top up to 15 ml of PBS; • 6. Centrifuge at 250 rcf 10 min at RT; • 7. Discard the supernatant, flick the pellet and add another 10 ml of PBS; • 8. Centrifuge at 250 rcf 10 min at RT; • 9. Repeat steps 7 and 8; • 10. […] Count cells and make a 4×10^6 cell/ml suspension in complete medium. Add 100 μl of cell suspension per well in a V-bottom 96-well plate. Then add 50 μl of stimulant or vehicle in complete media, and 50 μl of drug or vehicle in complete media. Incubate the cells for 24 h at 37° C. 5% CO2; • 12. After incubation, take 60 μl of cell supernatant to measure IFNγ and TNFα by ELISA (OptEIA human IFNγ, cat No. 555142 and human TNF, Cat No. 555212) following manufacturer's instructions (BD Biosciences); The two mitogens that the inventors used to stimulate lymphocytes, and therefore assess immune function, were lipopolysaccharide (LPS) and Concanavalin A (Con A). LPS acts on B cells but not T cells, whereas Con A acts on T cells but not B cells. The effects of two embodiments of the compound represented by formula I, i.e. dobutamine (referred to in the tables as BC1021) and ritodrine (BC1023), on the levels of IFN-γ and TNF-α were investigated in LPS and Con A stimulated assays. Peripheral Blood Mononuclear Cells (PMBC) were independently administered with each mitogen, LPS or Con A, and then treated with either dobutamine or ritodrine. Control experiments were conducted in which no LPS or Con A was added, such that any effect on the levels of IFN-γ and TNF-α could be directly attributed to the presence of the test compound, dobutamine or ritodrine.

IFN-γ [2] = test: IFN-γ levels in PBMC under LPS stimulation (ELISA); assay type: cell-based, human; settings: for Percentage IFN-γ levels compared to 100% untreated cells under LPS stimulation: PBMC; for concentration of IFN-γ in LPS stimulated cells: text summary of Table 1, concentration not stated
Method: 1) Isolation, Culture and Treatment of Peripheral Blood Mononuclear Cells (PBMC) Blood was collected in 6 ml vacutainers (green cap). Blood was processed within 2 h of collection. Materials used: Non-coagulated blood; FCS; RPMI-1640 media supplemented with L-Gln and P/S; PBS; sterile tips and pipettes; Sterile 15 ml Falcon; Sterile V-bottom 96-well plates with lids; Neubauer chamber; Trypan Blue solution; 70% IPA solution; Accuspin-Histopaque tubes (Sigma, A7054) Procedure: • 1. Dilute samples 1:1 in sterile PBS; • 2. Add 30 ml of diluted blood into an Accuspin-Histopaque tube (Sigma, A7054); • 3. Centrifuge at 800 rcf 15min at room temperature (RT); • 4. After centrifugation, the red blood cells will remain at the bottom below the frit. The monocytes (PBMC) will be present on a layer above the frit, with the plasma on top; • 5. Collect the PBMC layer with a pipette into a fresh 15 ml Falcon tube and top up to 15 ml of PBS; • 6. Centrifuge at 250 rcf 10 min at RT; • 7. Discard the supernatant, flick the pellet and add another 10 ml of PBS; • 8. Centrifuge at 250 rcf 10 min at RT; • 9. Repeat steps 7 and 8; • 10. […] Count cells and make a 4×10^6 cell/ml suspension in complete medium. Add 100 μl of cell suspension per well in a V-bottom 96-well plate. Then add 50 μl of stimulant or vehicle in complete media, and 50 μl of drug or vehicle in complete media. Incubate the cells for 24 h at 37° C. 5% CO2; • 12. After incubation, take 60 μl of cell supernatant to measure IFNγ and TNFα by ELISA (OptEIA human IFNγ, cat No. 555142 and human TNF, Cat No. 555212) following manufacturer's instructions (BD Biosciences); The two mitogens that the inventors used to stimulate lymphocytes, and therefore assess immune function, were lipopolysaccharide (LPS) and Concanavalin A (Con A). LPS acts on B cells but not T cells, whereas Con A acts on T cells but not B cells. The effects of two embodiments of the compound represented by formula I, i.e. dobutamine (referred to in the tables as BC1021) and ritodrine (BC1023), on the levels of IFN-γ and TNF-α were investigated in LPS and Con A stimulated assays. Peripheral Blood Mononuclear Cells (PMBC) were independently administered with each mitogen, LPS or Con A, and then treated with either dobutamine or ritodrine. Control experiments were conducted in which no LPS or Con A was added, such that any effect on the levels of IFN-γ and TNF-α could be directly attributed to the presence of the test compound, dobutamine or ritodrine. The values in the Tables are expressed as the percentage value of the LPS only control. […] Standard deviation values (s.d.) are given underneath each value of expressed IFN-γ levels.

Con A-stimulated cells = test: Cell cytotoxicity compared to digitonin under Con A stimulation
Text: Digitonin is a glycoside obtained from Digitalis purpurea, which acts as a detergent, and effectively water-solubilizes lipids in the plasma membrane. Therefore, digitonin can be used to permeabilise cell membranes. The inventors therefore investigated digitonin's cell membrane-permeabilising effects on Con A-stimulated cells to determine the cytotoxic effects of ritodrine or dobutamine.

TNF-α = TNF-α levels in PBMC under Con A stimulation (ELISA); assay type: cell-based, human; settings: for Percentage TNF-α levels compared to 100% untreated cells under Con A stimulation: PBMC; for concentration of TNF-α in Con A stimulated cells: text summary of Table 3, concentration not stated
Method: as §1

[3] = compound only (no Con A), 10 μM
[4] = compound only (no Con A), 100 μM

Q: Which results are given for CC(CCc1ccc(O)cc1)NCCc1ccc(O)c(O)c1 (stereo not drawn) [BC1021, dobutamine]?
A: Percentage IFN-γ levels compared to 100% untreated cells under Con A stimulation (IFN-γ [1]; + Con A, compound 1 μM, 24 h): 63.40%; Percentage IFN-γ levels compared to 100% untreated cells under Con A stimulation (IFN-γ [1]; + Con A, compound 10 μM, 24 h): 32.77%; Percentage IFN-γ levels compared to 100% untreated cells under Con A stimulation (IFN-γ [1]; + Con A, compound 100 μM, 24 h): −1.80%; Percentage IFN-γ levels compared to 100% untreated cells under Con A stimulation (IFN-γ [1]; + Con A, compound 100 μM, 24 h, listed as dobutamine): significant effect in decreasing; Percentage IFN-γ levels compared to 100% untreated cells under Con A stimulation (IFN-γ [1]; compound only (no Con A), 1 μM): −2.61%; Percentage IFN-γ levels compared to 100% untreated cells under Con A stimulation (IFN-γ [1]; [3]): −2.51%; Percentage IFN-γ levels compared to 100% untreated cells under Con A stimulation (IFN-γ [1]; [4]): −3.26%; concentration of IFN-γ in Con A stimulated cells (IFN-γ [1]): decreased; Percentage IFN-γ levels compared to 100% untreated cells under LPS stimulation (IFN-γ [2]; + LPS, compound 1 μM, 24 h): 82.88%; Percentage IFN-γ levels compared to 100% untreated cells under LPS stimulation (IFN-γ [2]; + LPS, compound 10 μM, 24 h): 29.84%; Percentage IFN-γ levels compared to 100% untreated cells under LPS stimulation (IFN-γ [2]; + LPS, compound 100 μM, 24 h): 37.22%; Percentage IFN-γ levels compared to 100% untreated cells under LPS stimulation (IFN-γ [2]; compound only (no LPS), 1 μM): 1.21%; Percentage IFN-γ levels compared to 100% untreated cells under LPS stimulation (IFN-γ [2]; compound only (no LPS), 10 μM): −0.33%; Percentage IFN-γ levels compared to 100% untreated cells under LPS stimulation (IFN-γ [2]; compound only (no LPS), 100 μM): −0.99%; concentration of IFN-γ in LPS stimulated cells (IFN-γ [2]): decreased; Percentage cytotoxicity compared to 100% for digitonin under Con A stimulation (Con A-stimulated cells; compound only (no Con A), 1 μM): 47.71%; Percentage cytotoxicity compared to 100% for digitonin under Con A stimulation (Con A-stimulated cells; [3]): 42.94%; Percentage cytotoxicity compared to 100% for digitonin under Con A stimulation (Con A-stimulated cells; [4]): 32.33%; cytotoxicity rates in treated samples (Con A-stimulated cells; text summary of Table 6, vast majority of cases): lower; Percentage TNF-α levels compared to 100% untreated cells under Con A stimulation (TNF-α; + Con A, compound 1 μM, 24 h): 103.05%; Percentage TNF-α levels compared to 100% untreated cells under Con A stimulation (TNF-α; + Con A, compound 10 μM, 24 h): 102.36%; Percentage TNF-α levels compared to 100% untreated cells under Con A stimulation (TNF-α; + Con A, compound 100 μM, 24 h): −33.95%; Percentage TNF-α levels compared to 100% untreated cells under Con A stimulation (TNF-α; compound only (no Con A), 1 μM): −35.44%; Percentage TNF-α levels compared to 100% untreated cells under Con A stimulation (TNF-α; [3]): −33.21%; Percentage TNF-α levels compared to 100% untreated cells under Con A stimulation (TNF-α; [4]): −42.84%; concentration of TNF-α in Con A stimulated cells (TNF-α): decreased

Q: CC(NCCc1ccc(O)cc1)C(O)c1ccc(O)cc1 (stereo not drawn) [BC1023, ritodrine] was tested. Which “Percentage IFN-γ levels compared to 100% untreated cells under Con A stimulation” value (IFN-γ [1]; + Con A, compound 1 μM, 24 h) did it give?
A: 39.93%

Q: What about the “Percentage IFN-γ levels compared to 100% untreated cells under Con A stimulation” value (IFN-γ [1]; + Con A, compound 10 μM, 24 h) of the same compound?
A: 34.25%

Q: And the “Percentage IFN-γ levels compared to 100% untreated cells under Con A stimulation” value (IFN-γ [1]; + Con A, compound 100 μM, 24 h)?
A: 41.69%

Q: And the “Percentage IFN-γ levels compared to 100% untreated cells under Con A stimulation” value (IFN-γ [1]; compound only (no Con A), 1 μM)?
A: −0.86%

Q: What about the “Percentage IFN-γ levels compared to 100% untreated cells under Con A stimulation” value (IFN-γ [1]; [3]) of the same compound?
A: −1.52%

Q: What about the “Percentage IFN-γ levels compared to 100% untreated cells under Con A stimulation” value (IFN-γ [1]; [4]) of the same compound?
A: −1.87%

Q: What about the “concentration of IFN-γ in Con A stimulated cells” value (IFN-γ [1]) of the same compound?
A: decreased

Q: And the “Percentage IFN-γ levels compared to 100% untreated cells under LPS stimulation” value (IFN-γ [2]; + LPS, compound 1 μM, 24 h)?
A: 44.79%

Q: And the “Percentage IFN-γ levels compared to 100% untreated cells under LPS stimulation” value (IFN-γ [2]; + LPS, compound 10 μM, 24 h)?
A: 51.41%

Q: And the “Percentage IFN-γ levels compared to 100% untreated cells under LPS stimulation” value (IFN-γ [2]; + LPS, compound 100 μM, 24 h)?
A: 38.74%

Q: What about the “Percentage IFN-γ levels compared to 100% untreated cells under LPS stimulation” value (IFN-γ [2]; compound only (no LPS), 1 μM) of the same compound?
A: 1.04%

Q: What about the “Percentage IFN-γ levels compared to 100% untreated cells under LPS stimulation” value (IFN-γ [2]; compound only (no LPS), 10 μM) of the same compound?
A: 2.73%

Q: And the “Percentage IFN-γ levels compared to 100% untreated cells under LPS stimulation” value (IFN-γ [2]; compound only (no LPS), 100 μM)?
A: 5.46%

Q: And the “concentration of IFN-γ in LPS stimulated cells” value (IFN-γ [2])?
A: decreased

Q: And the “cytotoxicity rates in treated samples” value (Con A-stimulated cells)?
A: lower

Q: What about the “Percentage cytotoxicity compared to 100% for digitonin under Con A stimulation” value (Con A-stimulated cells; human, 1 μM) of the same compound?
A: 44.54%

Q: And the “Percentage cytotoxicity compared to 100% for digitonin under Con A stimulation” value (Con A-stimulated cells; human, 10 μM)?
A: 43.63%

Q: What about the “Percentage cytotoxicity compared to 100% for digitonin under Con A stimulation” value (Con A-stimulated cells; human, 100 μM) of the same compound?
A: 43.81%

Q: And the “Percentage TNF-α levels compared to 100% untreated cells under Con A stimulation” value (TNF-α; + Con A, compound 1 μM, 24 h)?
A: 103.92%

Q: And the “Percentage TNF-α levels compared to 100% untreated cells under Con A stimulation” value (TNF-α; + Con A, compound 10 μM, 24 h)?
A: 106.20%

Q: What about the “Percentage TNF-α levels compared to 100% untreated cells under Con A stimulation” value (TNF-α; + Con A, compound 100 μM, 24 h) of the same compound?
A: 104.93%

Q: And the “Percentage TNF-α levels compared to 100% untreated cells under Con A stimulation” value (TNF-α; compound only (no Con A), 1 μM)?
A: −5.94%

Q: And the “Percentage TNF-α levels compared to 100% untreated cells under Con A stimulation” value (TNF-α; [3])?
A: −24.69%

Q: What about the “Percentage TNF-α levels compared to 100% untreated cells under Con A stimulation” value (TNF-α; [4]) of the same compound?
A: −14.80%

Q: And the “concentration of TNF-α in Con A stimulated cells” value (TNF-α)?
A: decreased
